Test results reported in patent US20250375467A1, “SUSTAINED RELEASE SILICA HYDROGEL COMPOSITES FOR TREATING OPHTHALMOLOGICAL CONDITIONS AND METHODS OF USING SAME” (ASTELLAS US LLC, priority 2022, published 2025).

Design: species or system Dutch belted (DB) rabbit
Conditions: rabbit, in vivo
Procedure: The composite formulation (using formulation #11 CSTR-3) prepared as described in Examples 2 and 3, whose in vitro release profile is shown in FIG. 8A and FIG. 8B, was evaluated for ACP release and tissue exposure following IVT administration in the Dutch belted (DB) rabbit. The study design includes bilateral intravitreal dosing of 1.0 mg oligo equivalent in a 50 μL dosing volume of silica composite PK formulation. Two rabbits (4 eyes) were collected at each of the following time points, day 1, 3, 7, 14, 28, 42, 56, and 84. Eyes were dissected, and vitreous humor, retina, and retinal pigment epithelium (RPE)/choroid were collected for tissue specific bioanalytical analysis employing a qualified dual-hybridization assay. The ocular PK (pharmacokinetics) is summarized in FIG. 9 for liquid formulation administered as an IVT bolus dose for vitreous humor and retina tissues as comparator to the sustained release depot PK formulation. The ocular tissue PK for the PK formulation is provided as solid lines for vitreous humor (top line), retina (middle line) and RPE/choroid (bottom line).
At study termination (day 84), the remaining PK formulation depot was recovered from the vitreous humor by centrifugation and analyzed for remaining silica by microwave plasma atomic emission spectroscopy (MP-AES) method and avacincaptad pegol content by a qualified HPLC assay method. […]

For avacincaptad pegol [ACP], which terminal half-life is on record?
Its terminal half-life is 91.2 h.
